# Reference: patent US20130274174A1, “THERAPEUTIC COMBINATION OF DAPTOMYCIN AND PROTEIN SYNTHESIS INHIBITOR ANTIBIOTIC, AND METHODS OF USE” (priority 2011, published 2013)
# Test system: S. aureus MW2 (NRS123)
# Assay: microbe, parasite or virus in culture
# Format: cell-based, Staphylococcus aureus
# Conditions: for MIC: Staphylococcus aureus
# Procedure: S. aureus strains MW2 (NARSA collection clinical MRSA isolate, NRS123) and ATCC 33591 (MRSA strain from the American Type Culture Collection) were cultured on Mueller-Hinton II cation adjusted (MHA) medium in 90×90 mm square petri dishes. MHA containing ¼ of the MIC value of TR-700, TR-705, LZD, TIA, CLI, TET, or VAN, TMP/SMX throughout the plate and a continuous linear gradient of DAP across the plate was used to passage MW2. ATCC 33591 was passaged with ¼ of the MIC of a subset of these drugs (TR-700, TMP/SMX, and VAN). A DAP-only control passage group was included for both strains. DAP gradients were created by pouring two layers of media as previously described (Bryson, V., et al. 1952. Microbial selection. Science 116:45-51; Locke, J. B., et al., 2009. Antimicrob. Agents Chemother. 53:5265-5274). Following each passage the leading edge of growth (i.e., most resistant cells) was resuspended in phosphate buffered saline (PBS) to an absorbance of 0.30 OD600 and a 100 μl aliquot containing ˜3.0×10^7 CFU (colony-forming units) was spread on to the proceeding passage plate. The starting maximal DAP concentration was 2 μg/ml and was increased in two-fold increments when the leading edge of growth surpassed the half way point on the plate. A glycerol stock was made from the total cell population for each culture condition for each passage. Thirty serial passages were completed for each treatment group.
smiles,measurement,setting,value
"Cn1nnc(-c2ccc(-c3ccc(N4C[C@H](CO)OC4=O)cc3F)cn2)n1 [TR-700, Tedizolid]",DAP MIC lower than DAP-only control,"MW2, after 30 passages, co-selecting agent at ¼ MIC, total population",16 fold
same,MIC,"NRS123, passage 0, NRS123 WT",0.5 µg/mL
same,MIC,"NRS123, passage 5, selection group DAP",0.5 µg/mL
same,MIC,"NRS123, passage 5, selection group DAP + CLI",0.5 µg/mL
same,MIC,"NRS123, passage 5, selection group DAP + LZD",0.5 µg/mL
same,MIC,"NRS123, passage 5, selection group DAP + TET",0.5 µg/mL
same,MIC,"NRS123, passage 5, selection group DAP + TIA",0.5 µg/mL
same,MIC,"NRS123, passage 5, selection group DAP + TMP/SMX",0.25 µg/mL
same,MIC,"NRS123, passage 5, selection group DAP + TR-700",0.5 µg/mL
same,MIC,"NRS123, passage 5, selection group DAP + TR-705",0.5 µg/mL
same,MIC,"NRS123, passage 5, selection group DAP + VAN",0.25 µg/mL
same,MIC,"NRS123, passage 10, selection group DAP",0.5 µg/mL
same,MIC,"NRS123, passage 10, selection group DAP + CLI",0.5 µg/mL
same,MIC,"NRS123, passage 10, selection group DAP + LZD",0.5 µg/mL
same,MIC,"NRS123, passage 10, selection group DAP + TET",0.5 µg/mL
same,MIC,"NRS123, passage 10, selection group DAP + TIA",0.5 µg/mL
same,MIC,"NRS123, passage 10, selection group DAP + TMP/SMX",0.5 µg/mL
same,MIC,"NRS123, passage 10, selection group DAP + TR-700",0.5 µg/mL
same,MIC,"NRS123, passage 10, selection group DAP + TR-705",0.5 µg/mL
same,MIC,"NRS123, passage 10, selection group DAP + VAN",0.25 µg/mL
same,MIC,"NRS123, passage 15, selection group DAP",0.25 µg/mL
same,MIC,"NRS123, passage 15, selection group DAP + CLI",0.25 µg/mL
same,MIC,"NRS123, passage 15, selection group DAP + LZD",0.5 µg/mL
same,MIC,"NRS123, passage 15, selection group DAP + TET",0.25 µg/mL
same,MIC,"NRS123, passage 15, selection group DAP + TIA",0.5 µg/mL
same,MIC,"NRS123, passage 15, selection group DAP + TMP/SMX",0.5 µg/mL
same,MIC,"NRS123, passage 15, selection group DAP + TR-700",0.5 µg/mL
same,MIC,"NRS123, passage 15, selection group DAP + TR-705",0.5 µg/mL
same,MIC,"NRS123, passage 15, selection group DAP + VAN",0.5 µg/mL
same,MIC,"NRS123, passage 20, selection group DAP",0.5 µg/mL
same,MIC,"NRS123, passage 20, selection group DAP + CLI",0.25 µg/mL
same,MIC,"NRS123, passage 20, selection group DAP + LZD",0.5 µg/mL
same,MIC,"NRS123, passage 20, selection group DAP + TET",0.25 µg/mL
same,MIC,"NRS123, passage 20, selection group DAP + TIA",0.5 µg/mL
same,MIC,"NRS123, passage 20, selection group DAP + TMP/SMX",0.5 µg/mL
same,MIC,"NRS123, passage 20, selection group DAP + TR-700",0.5 µg/mL
same,MIC,"NRS123, passage 20, selection group DAP + TR-705",0.5 µg/mL
same,MIC,"NRS123, passage 20, selection group DAP + VAN",0.5 µg/mL
same,MIC,"NRS123, passage 25, selection group DAP",0.25 µg/mL
same,MIC,"NRS123, passage 25, selection group DAP + CLI",0.25 µg/mL
same,MIC,"NRS123, passage 25, selection group DAP + LZD",0.25 µg/mL
same,MIC,"NRS123, passage 25, selection group DAP + TET",0.25 µg/mL
